According to ChEMBL document CHEMBL1201862, “PubChem BioAssay data set” (2004):
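Protocol summary: plate cells (96-well), add compound at 5 concentrations, incubate 48 h, interpolate endpoints linearly. GI50 marks 50% less growth.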 Activity calls are given as the source filed them. Cut-off read from the data, not from the text of the source: active = GI50 up to about 1.1 µM and inactive = higher. Non-standard residues stand in square brackets, D forms with d. Residues, ends and D or L forms follow the SMILES beside them. ξ: configuration not given here. *: point of attachment. dThr(3ξ) = CC(O)[C@@H](N)C(=O)O; dNMeL = CN[C@H](CC(C)C)C(=O)O; OBn = c1ccc(CO*)cc1; ξLac = CC(O)C(=O)O

Columns and labels:
Assay in all cases: NCI-60 cell line screen, 48 h
MDA-N = test system: MDA-N
SNB-19 = test system: SNB-19
U-251 = test system: U-251
786-0 = test system: 786-0
UACC-257 = test system: UACC-257
BT-549 = test system: BT-549
SW-620 = test system: SW-620
COLO 205 = test system: COLO 205
SK-MEL-2 = test system: SK-MEL-2
HOP-62 = test system: HOP-62
MCF7 = test system: MCF7
LOX IMVI = test system: LOX IMVI
SK-OV-3 = test system: SK-OV-3
MDA-MB-231 = test system: MDA-MB-231
CAKI-1 = test system: CAKI-1
SK-MEL-28 = test system: SK-MEL-28
HCT-116 = test system: HCT-116
OVCAR-3 = test system: OVCAR-3
NCI-H522 = test system: NCI-H522
SF-295 = test system: SF-295
HT-29 = test system: HT-29
NCI-H23 = test system: NCI-H23
Malme-3M = test system: Malme-3M
M14 = test system: M14
A549 = test system: A549
SR = test system: SR
CCRF-CEM = test system: CCRF-CEM
UACC-62 = test system: UACC-62
MDA-MB-435 = test system: MDA-MB-435
OVCAR-4 = test system: OVCAR-4
SF-539 = test system: SF-539
SNB-75 = test system: SNB-75
HCC 2998 = test system: HCC 2998
EKVX = test system: EKVX
SF-268 = test system: SF-268
UO-31 = test system: UO-31
KM12 = test system: KM12
PC-3 = test system: PC-3
TK-10 = test system: TK-10
NCI-H226 = test system: NCI-H226
OVCAR-5 = test system: OVCAR-5
HL-60 = test system: HL-60
T47D = test system: T47D
IGROV-1 = test system: IGROV-1
NCI/ADR-RES = test system: NCI/ADR-RES
RXF 393 = test system: RXF 393
SN12C = test system: SN12C
ACHN = test system: ACHN
HOP-92 = test system: HOP-92
SK-MEL-5 = test system: SK-MEL-5
OVCAR-8 = test system: OVCAR-8
HCT-15 = test system: HCT-15
RPMI-8226 = test system: RPMI-8226
DU-145 = test system: DU-145
NCI-H460 = test system: NCI-H460
MOLT-4 = test system: MOLT-4
Hs-578T = test system: Hs-578T
K562 = test system: K562
A498 = test system: A498

## O=S(=O)(O)c1cc(S(=O)(=O)O)c2c(/N=N/c3cccc4ccccc34)c(O)ccc2c1
MDA-N
  GI50: > 100 µM (inactive)
SNB-19
  GI50: > 100 µM (inactive)
U-251
  GI50: > 100 µM (inactive)
786-0
  GI50: > 100 µM (inactive)
UACC-257
  GI50: > 100 µM (inactive)
BT-549
  GI50: > 100 µM (inactive)
SW-620
  GI50: > 100 µM (inactive)
COLO 205
  GI50: > 100 µM (inactive)
SK-MEL-2
  GI50: > 100 µM (inactive)
HOP-62
  GI50: > 100 µM (inactive)
MCF7
  GI50: > 100 µM (inactive)
LOX IMVI
  GI50: > 100 µM (inactive)
SK-OV-3
  GI50: > 100 µM (inactive)
MDA-MB-231
  GI50: > 100 µM (inactive)
CAKI-1
  GI50: > 100 µM (inactive)
SK-MEL-28
  GI50: > 100 µM (inactive)
HCT-116
  GI50: > 100 µM (inactive)
OVCAR-3
  GI50: > 100 µM (inactive)
NCI-H522
  GI50: > 100 µM (inactive)
SF-295
  GI50: > 100 µM (inactive)
HT-29
  GI50: > 100 µM (inactive)
NCI-H23
  GI50: > 100 µM (inactive)
Malme-3M
  GI50: > 100 µM (inactive)
M14
  GI50: > 100 µM (inactive)
A549
  GI50: > 100 µM (inactive)
SR
  GI50: > 100 µM (inactive)
CCRF-CEM
  GI50: > 100 µM (inactive)
UACC-62
  GI50: > 100 µM (inactive)
MDA-MB-435
  GI50: > 100 µM (inactive)
OVCAR-4
  GI50: > 100 µM (inactive)
SF-539
  GI50: > 100 µM (inactive)
SNB-75
  GI50: > 100 µM (inactive)
HCC 2998
  GI50: > 100 µM (inactive)
EKVX
  GI50: > 100 µM (inactive)
SF-268
  GI50: > 100 µM (inactive)
UO-31
  GI50: > 100 µM (inactive)
KM12
  GI50: > 100 µM (inactive)
PC-3
  GI50: > 100 µM (inactive)
TK-10
  GI50: > 100 µM (inactive)
NCI-H226
  GI50: > 100 µM (inactive)
OVCAR-5
  GI50: > 100 µM (inactive)
HL-60
  GI50: > 100 µM (inactive)
T47D
  GI50: > 100 µM (inactive)
IGROV-1
  GI50: > 100 µM (inactive)
NCI/ADR-RES
  GI50: > 100 µM (inactive)
RXF 393
  GI50: > 100 µM (inactive)
SN12C
  GI50: > 100 µM (inactive)
ACHN
  GI50: > 100 µM (inactive)
HOP-92
  GI50: > 100 µM (inactive)
SK-MEL-5
  GI50: > 100 µM (inactive)
OVCAR-8
  GI50: > 100 µM (inactive)
HCT-15
  GI50: > 100 µM
RPMI-8226
  GI50: > 100 µM (inactive)
DU-145
  GI50: > 100 µM (inactive)
NCI-H460
  GI50: > 100 µM (inactive)
MOLT-4
  GI50: > 100 µM (inactive)
Hs-578T
  GI50: > 100 µM (inactive)
K562
  GI50: > 100 µM (inactive)
A498
  GI50: > 100 µM (inactive)

## Nc1ncnc2c1ncn2C1OC(CO)C(O)C1NS(=O)(=O)c1ccccc1 (configuration not stated)
MDA-N
  GI50: > 100 µM (inactive)
SNB-19
  GI50: > 100 µM (inactive)
U-251
  GI50: > 100 µM (inactive)
786-0
  GI50: > 100 µM (inactive)
UACC-257
  GI50: > 100 µM (inactive)
BT-549
  GI50: > 100 µM (inactive)
SW-620
  GI50: > 100 µM (inactive)
COLO 205
  GI50: > 100 µM (inactive)
SK-MEL-2
  GI50: > 100 µM (inactive)
HOP-62
  GI50: > 100 µM (inactive)
MCF7
  GI50: > 100 µM (inactive)
LOX IMVI
  GI50: > 100 µM (inactive)
SK-OV-3
  GI50: > 100 µM (inactive)
MDA-MB-231
  GI50: > 100 µM (inactive)
CAKI-1
  GI50: > 100 µM (inactive)
SK-MEL-28
  GI50: > 100 µM (inactive)
HCT-116
  GI50: > 100 µM (inactive)
OVCAR-3
  GI50: > 100 µM (inactive)
NCI-H522
  GI50: > 100 µM (inactive)
SF-295
  GI50: > 100 µM (inactive)
HT-29
  GI50: > 100 µM (inactive)
NCI-H23
  GI50: > 100 µM (inactive)
Malme-3M
  GI50: > 100 µM (inactive)
M14
  GI50: > 100 µM (inactive)
A549
  GI50: > 100 µM (inactive)
SR
  GI50: > 100 µM (inactive)
CCRF-CEM
  GI50: > 100 µM (inactive)
UACC-62
  GI50: > 100 µM (inactive)
MDA-MB-435
  GI50: > 100 µM (inactive)
OVCAR-4
  GI50: > 100 µM (inactive)
SF-539
  GI50: > 100 µM (inactive)
SNB-75
  GI50: > 100 µM (inactive)
HCC 2998
  GI50: > 100 µM (inactive)
EKVX
  GI50: > 100 µM (inactive)
SF-268
  GI50: > 100 µM (inactive)
UO-31
  GI50: > 100 µM (inactive)
KM12
  GI50: > 100 µM (inactive)
PC-3
  GI50: > 100 µM (inactive)
TK-10
  GI50: > 100 µM (inactive)
NCI-H226
  GI50: > 100 µM (inactive)
OVCAR-5
  GI50: > 100 µM (inactive)
HL-60
  GI50: > 100 µM (inactive)
T47D
  GI50: > 100 µM (inactive)
IGROV-1
  GI50: > 100 µM (inactive)
NCI/ADR-RES
  GI50: > 100 µM (inactive)
RXF 393
  GI50: > 100 µM (inactive)
SN12C
  GI50: > 100 µM (inactive)
ACHN
  GI50: > 100 µM (inactive)
HOP-92
  GI50: > 100 µM (inactive)
SK-MEL-5
  GI50: > 100 µM (inactive)
OVCAR-8
  GI50: > 100 µM (inactive)
HCT-15
  GI50: > 100 µM
RPMI-8226
  GI50: > 100 µM (inactive)
DU-145
  GI50: > 100 µM (inactive)
NCI-H460
  GI50: > 100 µM (inactive)
MOLT-4
  GI50: > 100 µM (inactive)
Hs-578T
  GI50: > 100 µM (inactive)
K562
  GI50: > 100 µM (inactive)
A498
  GI50: > 100 µM (inactive)

## CC(=O)OC(C)[C@@H](NC(=O)[C@@H](CC(C)C)N(C)C(=O)[C@@H]1CCCN1C(=O)C(C)O)C(=O)OCc1ccccc1 (some centres not stated) (H-[ξLac]P[dNMeL][dThr(3ξ)](Ac)-OBn)
MDA-N
  GI50: > 100 µM (inactive)
SNB-19
  GI50: > 100 µM (inactive)
U-251
  GI50: > 100 µM (inactive)
786-0
  GI50: > 100 µM (inactive)
UACC-257
  GI50: > 100 µM (inactive)
BT-549
  GI50: > 100 µM (inactive)
SW-620
  GI50: > 100 µM (inactive)
COLO 205
  GI50: > 100 µM (inactive)
SK-MEL-2
  GI50: > 100 µM (inactive)
HOP-62
  GI50: > 100 µM (inactive)
MCF7
  GI50: > 100 µM (inactive)
LOX IMVI
  GI50: > 100 µM (inactive)
SK-OV-3
  GI50: > 100 µM (inactive)
MDA-MB-231
  GI50: > 100 µM (inactive)
CAKI-1
  GI50: > 100 µM (inactive)
SK-MEL-28
  GI50: > 100 µM (inactive)
HCT-116
  GI50: > 100 µM (inactive)
OVCAR-3
  GI50: > 100 µM (inactive)
NCI-H522
  GI50: > 100 µM (inactive)
SF-295
  GI50: > 100 µM (inactive)
HT-29
  GI50: > 100 µM (inactive)
NCI-H23
  GI50: > 100 µM (inactive)
Malme-3M
  GI50: > 100 µM (inactive)
M14
  GI50: > 100 µM (inactive)
A549
  GI50: > 100 µM (inactive)
SR
  GI50: > 100 µM (inactive)
CCRF-CEM
  GI50: > 100 µM (inactive)
UACC-62
  GI50: > 100 µM (inactive)
MDA-MB-435
  GI50: > 100 µM (inactive)
OVCAR-4
  GI50: 62.4 µM (inactive)
SF-539
  GI50: > 100 µM (inactive)
SNB-75
  GI50: 81.7 µM (inactive)
HCC 2998
  GI50: > 100 µM (inactive)
EKVX
  GI50: > 100 µM (inactive)
SF-268
  GI50: > 100 µM (inactive)
UO-31
  GI50: > 100 µM (inactive)
KM12
  GI50: > 100 µM (inactive)
PC-3
  GI50: > 100 µM (inactive)
TK-10
  GI50: > 100 µM (inactive)
NCI-H226
  GI50: > 100 µM (inactive)
OVCAR-5
  GI50: > 100 µM (inactive)
HL-60
  GI50: > 100 µM (inactive)
T47D
  GI50: > 100 µM (inactive)
IGROV-1
  GI50: > 100 µM (inactive)
NCI/ADR-RES
  GI50: > 100 µM (inactive)
RXF 393
  GI50: > 100 µM (inactive)
SN12C
  GI50: > 100 µM (inactive)
ACHN
  GI50: > 100 µM (inactive)
HOP-92
  GI50: > 100 µM (inactive)
SK-MEL-5
  GI50: > 100 µM (inactive)
OVCAR-8
  GI50: > 100 µM (inactive)
HCT-15
  GI50: > 100 µM
RPMI-8226
  GI50: > 100 µM (inactive)
DU-145
  GI50: > 100 µM (inactive)
NCI-H460
  GI50: > 100 µM (inactive)
MOLT-4
  GI50: > 100 µM (inactive)
Hs-578T
  GI50: > 100 µM (inactive)
K562
  GI50: > 100 µM (inactive)
A498
  GI50: > 100 µM (inactive)
